Test results as given in patent US4920134A, “2-O-pyrimidinyl glycerol derivatives” (Takeda Chemical Industries, Ltd., priority 1987, dated 1990).

Legend:
HL-60 cells = test: Proliferation-inhibitory effect against human myelocytic leukemia HL-60 cells ([3H]thymidine incorporation); type: cell-based; conditions: 20 h + 4 h with [3H]thymidine, 37° C.
Method: Proliferation-inhibitory effect (IC50) of compounds in Examples against human myelocytic leukemia HL-60 cells HL-60 cells (human leukemia cell line) were suspended in GIT medium (Wako Pure Chemicals) containing a test compound to a concentration of 2×10^5 cells/ml, and 0.2 ml of the suspension was transferred to each well of a microwell plate having 96 wells. […] To determine the amount of thymidine incorporated into the cells, an acid-insoluble fraction was collected by a glass filter, and the radioactivity was measured by a liquid scintillation counter. The concentration of the drug which was required for 50% reduction of incorporated radioactivity from that of the control group without medication was taken as the IC50 value of the compound.

[1] = test system: murine breast cancer MM46 cells; test: Antitumor activity in C3H mice inoculated with murine breast cancer MM46 cells; type: in vivo, C3 H mice; conditions: i.p., 0.25 mg/mouse per administration; for life-span prolongation ratio T/C: once a day for 4 days from 2nd day, calculated only on survived days of died mice; for No. of survivors/No. of tested animals: once a day for 4 days, on the 60th day
Excerpt: (§1) Antitumor activity of compounds in Examples
C3 H mice were intraperitoneally inoculated with 1×10^4 murine breast cancer MM46 cells, and then intraperitoneally given a compound of Examples dissolved in physiological saline once a day for 4 days from the 2nd day after the inoculation. The life-span prolongation ratio* (T/C %) against the control group without medication and the number of surviving mice on the 60th day are shown in Table 3.
*Calculated only on the survived days of died mice

Sarcoma 180 cells = test: Antitumor activity in ICR mice inoculated with Sarcoma 180 cells; type: in vivo; conditions: Sarcoma 180, ICR mice, i.p., 0.33 mg/mouse; for life-span prolongation ratio T/C: 3 times (1 hour, 1 day, 2 days after inoculation), calculated only on survival days of died mice; for No. of survivors/No. of tested animals: 3 times, on the 60th day
Method: as §1
ICR mice were intraperitoneally inoculated with 1×10^5 Sarcoma 180 cells per mouse, and then intraperitoneally given 0.33 mg/mouse of a compound of Examples dissolved in physiological saline, three times in total, i.e. 1 hour, 1 day and 2 days after the inoculation. The life-span prolongation ratio* (T/C %) against the control group without medication and the number of surviving mice on the 60th day are shown in Table 2.
*Calculated only on the survival days of died mice.

P388 cells = test: Antitumor activity in CDF1 mice inoculated with P388 cells; type: in vivo; conditions: i.p., 0.5 mg/mouse, twice (1 hour and 5 days after inoculation)
Method: CDF1 mice (5 heads per group) were intraperitoneally inoculated with 1×10^6 P388 cells per mouse, and then intraperitoneally given 0.5 mg/mouse of the compound in Example 2 dissolved in physiological saline, twice in total, i.e. 1 hour and 5 days after the inoculation. The life-span prolongation ratio (T/C %) against the control group without medication was 151%.

CCCCCCCCCCCCCCCCCCOCC(COCCOCC[N+](C)(C)C)Oc1ncccn1.[Cl-] (stereo not shown) [Example 1, N-2-[2-[3-Octadecyloxy-2-(pyrimidin-2-yloxy)propoxy]ethoxy]ethyl-N,N,N-trimethylammonium chloride]
IC50 (HL-60 cells): 0.63 µg/mL | life-span prolongation ratio T/C [1]: 160% | No. of survivors/No. of tested animals [1]: 4/5 | life-span prolongation ratio T/C (Sarcoma 180 cells): 200% | No. of survivors/No. of tested animals (Sarcoma 180 cells): 0/5

CCCCCCCCCCCCCCCCCCOCC(COCCOCC[N+](C)(C)C)Oc1ccc(Cl)nn1 (stereo not shown) [Example 2, N-[2-[2-[2-(3-Chloropyridazine-6-yloxy)-3-octadecyloxy]propoxy]ethoxy]ethyl-N,N,N-trimethylammonium chloride]
life-span prolongation ratio (T/C %) (P388 cells): 151% | IC50 (HL-60 cells): 1.25 µg/mL | life-span prolongation ratio T/C [1]: 174% | No. of survivors/No. of tested animals [1]: 1/5

CCCCCCCCCCCCCCCCCCOCC(COCCOCC[N+](C)(C)C)Oc1cccnn1.[Cl-] (stereo not shown) [Example 3, N-[2-[2-[3-Octadecyloxy-2-(pyridazin-3-yloxy)propoxy]ethoxy]ethyl]-N,N,N-trimethylammonium chloride]
IC50 (HL-60 cells): 0.32 µg/mL | life-span prolongation ratio T/C (Sarcoma 180 cells): 269% | No. of survivors/No. of tested animals (Sarcoma 180 cells): 0/5

CCCCCCCCCCCCCCCCCCOCC(COCCOCC[n+]1ccsc1)Oc1ncccn1.[Cl-] (stereo not shown) [Example 4, 3-[2-[2-[3-Octadecyloxy-2-(pyrimidin-2-yloxy)propoxy]ethoxy]ethyl]thiazolium chloride]
IC50 (HL-60 cells): 2.5 µg/mL | life-span prolongation ratio T/C (Sarcoma 180 cells): 244% | No. of survivors/No. of tested animals (Sarcoma 180 cells): 0/4

CCCCCCCCCCCCCCCCCCOCC(COCCOCC[n+]1cccc(C(N)=O)c1)Oc1ncccn1.[Cl-] (stereo not shown) [Example 5, 3-Carbamoyl-1-[2-[2-[3-octadecyloxy-2-(pyrimidin-2-yloxy)propoxy]ethoxy]ethyl]pyridinium chloride]
IC50 (HL-60 cells): 0.63 µg/mL

CCCCCCCCCCCCCCCCCCOCC(COCCOCC[n+]1cccc(C(=O)[O-])c1)Oc1ncccn1 (stereo not shown) [Example 6, 1-[2-[2-[3-Octadecyloxy-2-(pyrimidin-2-yloxy)propoxy]ethoxy]ethyl]pyridinio-3-carboxylate]
life-span prolongation ratio T/C [1]: 121% | No. of survivors/No. of tested animals [1]: 4/5

CCCCCCCCCCCCCCCCCCOCC(COCCOCC[n+]1ccc(C(C)(C)C)cc1)Oc1ncccn1 (stereo not shown) [Example 8, 4-t.-Butyl-1-[2-[2-[3-octadecyloxy-2-(pyrimidin-2-yloxy)propoxy]ethoxy]ethyl]pyridinium chloride]
IC50 (HL-60 cells): 1.25 µg/mL

CCCCCCCCCCCCCCCCCCOCC(COCCOCC[n+]1cccc(O)c1)Oc1ncccn1.[Cl-] (stereo not shown) [Example 9, 3-Hydroxy-1-[2-[2-[3-octadecyloxy-2-(pyrimidin-2-yloxy)propoxy]ethoxy]ethyl]pyridinium chloride]
life-span prolongation ratio T/C [1]: 132% | No. of survivors/No. of tested animals [1]: 1/3

CCCCCCCCCCCCCCCCCCOCC(COCCOCC[n+]1ccn(C)c1)Oc1ncccn1.[Cl-] (stereo not shown) [Example 10, 1-Methyl-3-[2-[2-[3-octadecyloxy-2-(pyrimidin-2-yloxy)propoxy]ethoxy]ethyl]imidazolium chloride]
IC50 (HL-60 cells): 0.63 µg/mL

CCCCCCCCCCCCCCCCCCOCC(COCCOCC[N+](C)(C)C)Oc1ccncn1.[Cl-] (stereo not shown) [Example 11, N-2-[2-[3-Octadecyloxy-2-(pyrimidin-4-yloxy)propoxy]ethoxy]ethyl-N,N,N-trimethylammonium chloride]
IC50 (HL-60 cells): 1.25 µg/mL

CCCCCCCCCCCCCCCCCCOCC(COCCOCC[n+]1cccc(C(N)=O)c1)Oc1ccncn1.[Cl-] (stereo not shown) [Example 12, 3-Carbamoyl-1-[2-[2-[3-octadecyloxy-2-(pyrimidin-4-yloxy)propoxy]ethoxy]ethyl]pyridinium chloride]
IC50 (HL-60 cells): 2.5 µg/mL

CCCCCCCCCCCCCCCCCCOCC(COCCOCCOCC[N+](C)(C)C)Oc1ncccn1.[Cl-] (stereo not shown) [Example 14, N-2-[2-[2-[3-Octadecyloxy-2-(pyrimidin-2-yloxy)propoxy]ethoxy]ethoxy]ethyl-N,N,N-trimethylammonium chloride]
IC50 (HL-60 cells): 2.5 µg/mL
